Data taken from patent publication US20250011878A1, “METHOD TO DETECT RNA BIOMARKERS” (ITALFARMACO SPA, priority 2021, published 2025).

Biological target: T1, HDAC6 (Mus musculus, UniProt Q9Z2V5)
T1 construct: Spleens were collected and total splenocytes suspension was prepared; from tissue; host or cells: spleen (splenocytes) of BALB/c mice bearing CT26 tumors
T1 sequence (Q9Z2V5 1-1149): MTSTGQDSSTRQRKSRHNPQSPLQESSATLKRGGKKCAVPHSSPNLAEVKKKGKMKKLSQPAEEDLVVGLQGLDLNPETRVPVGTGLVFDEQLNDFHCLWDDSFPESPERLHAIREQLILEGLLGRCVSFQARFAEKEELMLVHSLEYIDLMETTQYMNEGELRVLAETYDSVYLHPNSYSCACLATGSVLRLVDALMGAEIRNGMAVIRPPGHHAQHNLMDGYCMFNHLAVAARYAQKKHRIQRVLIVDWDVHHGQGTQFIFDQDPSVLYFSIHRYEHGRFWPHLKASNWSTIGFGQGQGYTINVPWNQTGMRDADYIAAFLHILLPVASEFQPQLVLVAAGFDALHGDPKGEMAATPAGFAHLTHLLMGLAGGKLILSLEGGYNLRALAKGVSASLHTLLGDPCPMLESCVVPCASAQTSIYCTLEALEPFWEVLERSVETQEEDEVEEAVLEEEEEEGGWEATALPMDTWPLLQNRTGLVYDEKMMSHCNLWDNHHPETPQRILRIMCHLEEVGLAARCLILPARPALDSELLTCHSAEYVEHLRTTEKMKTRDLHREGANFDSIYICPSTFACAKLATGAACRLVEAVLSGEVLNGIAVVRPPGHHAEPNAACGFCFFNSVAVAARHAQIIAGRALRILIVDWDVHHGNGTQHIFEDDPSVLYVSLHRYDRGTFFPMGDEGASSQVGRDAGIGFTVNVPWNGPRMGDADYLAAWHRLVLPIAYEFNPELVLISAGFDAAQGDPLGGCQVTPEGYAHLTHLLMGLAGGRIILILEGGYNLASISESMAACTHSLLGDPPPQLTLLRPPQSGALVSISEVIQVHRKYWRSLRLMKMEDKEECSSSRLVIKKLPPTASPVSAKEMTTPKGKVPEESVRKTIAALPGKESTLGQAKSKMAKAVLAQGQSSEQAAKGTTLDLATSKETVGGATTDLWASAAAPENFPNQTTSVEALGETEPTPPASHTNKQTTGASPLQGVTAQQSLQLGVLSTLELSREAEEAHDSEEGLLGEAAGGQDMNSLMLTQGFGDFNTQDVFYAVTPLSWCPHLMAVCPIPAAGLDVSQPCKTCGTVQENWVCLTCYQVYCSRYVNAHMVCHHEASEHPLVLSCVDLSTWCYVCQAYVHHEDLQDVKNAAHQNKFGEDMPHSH
Experiment: Target engagement: tubulin acetylation in spleen of CT26 tumor bearing mice (western blot)
Format: in vivo, BALB/c mice
Conditions: 50 mpk os, 8 administrations (Table 9)
Description: Adult BALB/c mice were injected s.c. with 1×10^6 CT26 tumor cells (diluted to 100 μl with phosphate buffered saline) and treated with anti-PD1 or ITF3756 when the tumor volume reached 75-100 mm^3, to explore the modulation of genes in the tumor microenvironment by RNAseq. Since ITF3756 acts on the PD-1/PD-L1 axis, this approach allows the identification of genes specific and common to both treatments. The overall schedule is described in Table 9.
Whole cell extracts were obtained by lysing mice spleens with Triton Buffer (50Mm Tris-HCl ph 7.5, 250 mM NaCl, 50 mM NaF, 1 mM EDTA pH 8, 0.1% Triton), supplemented with protease and phosphatase inhibitors (Roche, Germany). Proteins were separated by SDS-PAGE, transferred onto PVDF membranes and blocked with PBS-T (Phosphate-buffared saline and 0.1% Tween-20 containing 5% non-fat dry milk for one hour at room temperature (RT). The incubation with primary antibodies was performed for two hours at RT, followed by incubation with the appropriate horseradish peroxidase-conjugated secondary antibody. Detection was performed with ECL Western Blot Reagent (Amerscham). The antibodies used were: mouse anti acetylated tubulin (Sigma, T6793), mouse anti tubulin (Sigma, T6074), goat anti-mouse IgG (H+L)-HRP conjugate (Bio-Rad, 1706516).
Densitometry analysis was performed using ImageJ software. […]
To ascertain HDAC6 inhibition by ITF3756, the spleen of the animals were collected at all sacrifice time points (1 hour, 4 hours, 18 hours and 24 hours). Tubulin acetylation and total tubulin were detected by western blotting.
Tumor bearing animals were sacrificed at various time points after the last administration. Spleens were collected and total splenocytes suspension was prepared. Pelleted cells were lysed to obtain a total protein extract […] by electrophoresis. Tubulin and acetyl-tubulin were detected after western blotting using specific antibodies.

O=C(NO)c1ccc(Cn2nnnc2-c2cccs2)cc1 [ITF3756, N-hydroxy-4-((5-(thiophen-2-yl)-1 H-tetrazol-1-yl)methyl)benzamide]
tubulin acetylation in spleen (1 hour after the last treatment): strong increase | tubulin acetylation in spleen (4 hours after the last treatment): maintained until 4 hours | tubulin acetylation in spleen (18 hours after the last treatment): still high and consistent | tubulin acetylation in spleen (24 hours after the last treatment): still detectable, but not in all the animals analysed
